Test results reported in US6989401B2, “Sulfonic acid derivatives of hydroxamic acids and their use as medicinal products” (Mitsubishi Pharma Corporation, priority 2000, dated 2006).
Like-named read-outs stand apart in the source and are kept apart here.

Key:
[1] = test system: LPS in E. coli culture supernatant (E. coli NIHJ JC-2 strain); test: Inhibitory effect on LPS in E. coli culture supernatant; assay type: cell-based; settings: 24 hr; for inhibitory effect of compound on LPS in E. coli culture supernatant, relative ratio: relative ratio to the inhibitory ratio of the compound of Example 1 as 1.0, compound 100 μM
Protocol: One platinum loop of E. coli NIHJ JC-2 strain was inoculated into a test tube containing heart infusion broth (HIB, 5 mL) and cultured for about 24 hr. The bacterial culture broth was washed three times by centrifugation (3000 rpm, 15 min, 20° C., TOMY Seiko, RL-131) using 10 mL of fresh HIB medium for one cycle of washing. The washed bacteria were prepared to an about 10^7 colony forming unit (CFU)/mL with a fresh HIB medium, and 0.2 mL of the prepared bacterial suspension was inoculated into an Erlenmeyer flask containing a fresh HIB medium (18.8 mL) (i.e., to final bacterial concentration of about 10^5 CFU/mL). A solution (1 mL) of each compound prepared to a concentration of 2 mM (final concentration of compound 100 μM) was added to the culture broth containing the bacteria. Using a shaker (RGR-1 type, manufactured by IWASHIYA, Ltd.), shake culture was conducted at 37° C., and 2 mL of culture broth after 24 hr was sampled. The sampled culture broth was filtered (DISMIC, 0.45 μm, Advantech Toyo) and diluted 10^5-fold with sterile distilled water. The resulting suspension (200 μL) was added to a limulus reagent (LAL ES, Wako Pure Chemical Industries) and LPS concentration was measured using Toxinometer MT-285 (Wako Pure Chemical Industries) preheated to 37° C.
The LPS inhibitory ratio of the compound was calculated as a ratio of the LPS concentration of the compound addition group relative to the LPS concentration of the compound non-addition group. […] The inhibitory ratio of each compound is shown in the following in Table 1 as a relative ratio to the inhibitory ratio of the compound of Example 1 as 1.0.

[2] = test system: LPS in rat peritonitis (CLP; cecal ligation and puncture) model; test: Inhibitory effect on LPS that increases in rat peritonitis (CLP) model; assay type: in vivo; settings: iv, continuous tail vein infusion 2.5 mg/kg/hr
Protocol: Rat peritonitis (CLP; cecal ligation and puncture) model was prepared according to the method of Wichterman et al. (J. Surg. Res. 29, 189-201 <1980>). That is, a rat fasted overnight was anesthetized with ether, and a midline laparotomy was performed and the cecum was exposed. The cecum was ligated with a 3-0 silk thread at its base and perforated two times with an 18 G injection needle. The cecum was gently squeezed to extrude feces, which were spread around the abdomen, and the sectioned part was sutured. The animal was fixed in a Borrmann cage, and physiological saline or drug solution ([…]) was continuously given from the tail vein at an administration rate of 2.5 mg/kg/hr with an infusion pump (22 M, Harvard, 5 mL/kg/hr as a dose).
After 6 hr of the CLP treatment, the animal was sacrificed with carbonic acid gas. The abdominal cavity was washed by injecting phosphate buffered saline (PBS; 37° C., 10 mL) and the abdominal cavity washing containing ascites (PLF; peritoneal lavage fluid) was recovered. The recovery weight of the obtained PLF was measured, and PLF was centrifuged (1500 rpm for 5 min, 4° C.) to recover supernatant. The blood taken from the heart was centrifuged (3000 rpm for 10 min, 4° C.) using a serum separation tube, and the serum was recovered. The concentration of LPS in the abdominal cavity and serum was measured using Toxinometer MT-285 (Waco Pure Chemical Industries) preheated to 37° C., after diluting the supernatant and serum of the recovered PLF 10^5-fold and 10^2-fold, respectively, with sterile distilled water, and adding 200 μL thereof to a limulus reagent (LAL ES, Waco Pure Chemical Industries). The amount of LPS per abdominal cavity was calculated from amount of recovered abdominal cavity washing (PLF)×LPS concentration of PLF.
The LPS inhibitory ratio of the compound was calculated as the ratio of LPS concentration of the compound administration group to LPS concentration of the physiological saline administration group.

[3] = peritoneal lavage fluid 6 hr after CLP, read-out: LPS inhibitory ratio (%) in abdominal cavity
[4] = serum 6 hr after CLP, read-out: LPS inhibitory ratio (%) in blood

SMILES	inhibitory effect of compound on LPS in E. coli culture supernatant, relative ratio [1]	inhibition in vivo at 2.5 mg/kg/h [2, 3] [%]	inhibition in vivo at 2.5 mg/kg/h [2, 4] [%]	inhibitory effect of compound on LPS in E. coli culture supernatant, relative ratio ([1]; sodium salt)	LPS inhibitory ratio ([1]; final concentration of compound 100 μM, shake culture 37° C., limulus reagent)
CNC(=O)[C@H](Cc1ccc(OCCS(=O)(=O)[O-])cc1)NC(=O)[C@H](CC(C)C)C(CN1C(=O)c2ccccc2C1=O)C(=O)NO.[Na+] (single isomer, unassigned) [Example 10, 5-methyl-3(R)-{1(S)-methylcarbamoyl-2-[4-(2-sulfoethoxy)phenyl]ethylcarbamoyl}-2(R or S)-phthalimidomethylhexanohydroxamic acid sodium salt]	0.87	88.1	81.4	–	–
CC(C)C[C@@H](C(=O)N[C@@H](Cc1ccccc1)C(=O)NCCCCS(=O)(=O)[O-])C(CN1C(=O)c2ccccc2C1=O)C(=O)NO.[Na+] (single isomer, unassigned) [Example 21, 5-methyl-3(R)-[2-phenyl-1(S)-(4-sulfobutylcarbamoyl)ethylcarbamoyl]-2(R or S)-phthalimidomethylhexanohydroxamic acid sodium salt]	0.79	57.1	55.9	–	–
CC(C)C[C@@H](C(=O)N[C@@H](Cc1ccccc1)C(=O)NCCS(=O)(=O)[O-])C(CN1C(=O)c2ccccc2C1=O)C(=O)NO.[Na+] (single isomer, unassigned) [Example 17, 5-methyl-3(R)-[2-phenyl-1(S)-(2-sulfoethylcarbamoyl)ethylcarbamoyl]-2(R or S)-phthalimidomethylhexanohydroxamic acid sodium salt]	0.78	14.4	59.1	–	–
CC(C)C[C@@H](C(=O)N[C@@H](Cc1ccccc1)C(=O)NCCCS(=O)(=O)[O-])C(CN1C(=O)c2ccccc2C1=O)C(=O)NO.[Na+] (single isomer, unassigned) [Example 19, 5-methyl-3(R)-[2-phenyl-1(S)-(3-sulfopropylcarbamoyl)ethylcarbamoyl]-2(R or S)-phthalimidomethylhexanohydroxamic acid sodium salt]	0.67	89.6	67.8	–	–
CC(C)C[C@@H](C(=O)N[C@@H](Cc1ccccc1)C(=O)NCCCCCS(=O)(=O)[O-])C(CN1C(=O)c2ccccc2C1=O)C(=O)NO.[Na+] (single isomer, unassigned) [Example 22, 5-methyl-3(R)-[2-phenyl-1(S)-(5-sulfopentylcarbamoyl)ethylcarbamoyl]-2(R or S)-phthalimidomethylhexanohydroxamic acid sodium salt]	0.68	80.7	21.6	–	–
CNC(=O)[C@H](Cc1ccc(OCCCCS(=O)(=O)[O-])cc1)NC(=O)[C@H](CC(C)C)C(CN1C(=O)c2ccccc2C1=O)C(=O)NO.[Na+] (single isomer, unassigned) [Example 11, 5-methyl-3(R)-{1(S)-methylcarbamoyl-2-[4-(4-sulfobutoxy)phenyl]ethylcarbamoyl}-2(R or S)-phthalimidomethylhexanohydroxamic acid sodium salt]	0.74	5.5	36.2	–	–
CNC(=O)[C@H](Cc1ccc(OCCCS(=O)(=O)[O-])cc1)NC(=O)[C@H](CC(C)C)C(Cc1ccc2ccccc2c1)C(=O)NO.[Na+] (single isomer, unassigned) [Example 13, 5-methyl-3(R)-{1(S)-methylcarbamoyl-2-[4-(3-sulfopropoxy)phenyl]ethylcarbamoyl}-2(R or S)-(2-naphthylmethyl)hexanohydroxamic acid sodium salt]	0.87	44.7	74.2	–	–
CNC(=O)[C@H](Cc1ccc(OCCCS(=O)(=O)[O-])cc1)NC(=O)[C@H](CC(C)C)C(CN1C(=O)c2ccccc2C1=O)C(=O)NO.[Na+] (single isomer, unassigned) [Example 4, 5-methyl-3(R)-{1(S)-methylcarbamoyl-2-[4-(3-sulfopropoxy)phenyl]ethylcarbamoyl}-2(R or S)-phthalimidomethylhexanohydroxamic acid sodium salt]	–	–	–	0.69	–
CC(C)C[C@@H](C(=O)N[C@@H](Cc1ccccc1)C(=O)NCS(=O)(=O)[O-])C(CN1C(=O)c2ccccc2C1=O)C(=O)NO.[Na+] (single isomer, unassigned) [Example 15, 5-methyl-3(R)-[2-phenyl-1(S)-(sulfomethylcarbamoyl)ethylcarbamoyl]-2(R or S)-phthalimidomethylhexanohydroxamic acid sodium salt]	1.05	70.3	68.2	–	–
CNC(=O)[C@H](Cc1ccc(OCCCS(=O)(=O)[O-])cc1)NC(=O)[C@H](CC(C)C)C(CN1C(=O)c2ccccc2C1=O)C(=O)NO.[Na+] (single isomer, unassigned) [Example 1, 5-methyl-3(R)-{1(S)-methylcarbamoyl-2-[4-(3-sulfopropoxy)phenyl]ethylcarbamoyl}-2(R or S)-phthalimidomethylhexanohydroxamic acid sodium salt]	–	88.3	79.9	1.0	46.5-65.8%
CNC(=O)[C@@H](Cc1ccc(OCCCS(=O)(=O)[O-])cc1)NC(=O)[C@H](CC(C)C)C(CN1C(=O)c2ccccc2C1=O)C(=O)NO.[Na+] (single isomer, unassigned) [Example 3, 5-methyl-3(R)-{1(R)-methylcarbamoyl-2-[4-(3-sulfopropoxy)phenyl]ethylcarbamoyl}-2(R or S)-phthalimidomethylhexanohydroxamic acid sodium salt]	–	–	–	0.70	–
